{
  "source": "patent US20260191764A1",
  "about": "“COMBINATION OF A LACTOBACILLUS STRAIN AND A GRAPE EXTRACT FOR USE AS AN ANTI-AGEING AGENT” (CEPAGES, priority 2022, published 2026)",
  "key": {"[1]": {"system": "NHEK keratinocytes", "experiment": "ROS production in NHEK keratinocytes subjected to UVA (H2DCFDA probe)", "type": "cell-based, Human", "settings": "UVA 5 J/cm^2, extract at 0.29%, active at 0.3%, ascorbic acid at 300 μg/mL, 24 h pre-treatment, FIG. 2", "experimental": "The Normal Human foreskin-derived Epidermal Keratinocytes isolated from 3 Caucasian donors (NHEKs, Lonza, 00192906) were grown in Epilife medium (Fisher Scientific, M-EPI-500-A) supplemented with Human Keratinocyte Growth Supplement (HKGS, Fisher Scientific, S-001-5). The cells were maintained in a humidified incubator at 37° C. with a 5% CO2 atmosphere. The detection and quantification of the intracellular ROS amounts from 2D NHEK keratinocytes or 3D RHE were performed using the H2DCFDA (2′-7′dichlorodihydrofluorescein diacetate; Fisher Scientific; D399) probe. After its diffusion into the live cells, the probe is deacetylated by intracellular esterases to a non-fluorescent compound. This compound can be oxidized by ROS and converted into the highly fluorescent DCF (2′-7′ dichlorofluorescein). The production of ROS by cells can be therefore measured through the level of fluorescence emitted by the oxidized dye. NHEK keratinocytes in 24-well plates were pre-treated in the culture medium during 24 h by the compounds at 1 concentration or with the antioxidant reference, ascorbic acid at 300 μg/mL. […] Following the challenge, the fluorescence was measured (excitation: 475 nm; emission: 500-550 nm) with a fluorescence microplate reader (Glomax Explorer, Promega). […]"}, "[2]": {"system": "pro-MMP1", "experiment": "Pro-MMP1 release from NHDFs fibroblasts (ELISA)", "type": "cell-based, Human", "settings": "NHDFs treated 72 h; B 0.0079%, E 0.029%, A 0.03%; TGF-β1 20 ng/ml; TNFα 20 ng/mL + IL1β 2.5 ng/ml; vs untreated control; FIG. 3", "experimental": "The Normal Human foreskin-derived Dermal Fibroblasts (NHDFs; ATCC, CRL-2522) cells were grown in Dulbecco's Modified Eagle Medium (DMEM, Gibco/Life Technologies, 31885) supplemented with 10% of Foetal Bovine Serum (FBS, Gibco/Life Technologies, 10270). The cells were maintained in a humidified incubator at 37° C. with a 5% CO2 atmosphere.\nNHDF fibroblasts were cultivated on 24-well plates in complete culture medium (containing 10% FBS) 24 h before the treatment with the compounds. Cells were then treated for 72 h with the test compounds in culture medium, in absence of FBS. In parallel, reference treatments were applied according to the same method (TGF-β at 20 ng/ml; combination of TNFα at 20 ng/ml and IL1β at 2.5 ng/ml). All the treatments were performed in triplicate of culture (n=3).\nAt the end of the 72 h of treatments, all the supernatants were collected, aliquoted and stored at −20° C. until further use in specific ELISA assays. Through these assays, the quantifications of the extracellular releases of pro-MMP1 (R&D systems, DMP100) produced by NHDFs fibroblasts were assessed according to the supplier's specifications."}},
  "data": [
    {"compound": "O=C1O[C@H]([C@@H](O)CO)C(O)=C1O", "note": "[ascorbic acid]", "values": [
      {"measurement": "ROS production", "setting": "[1]", "value": "partially suppressed this effect"}
    ]},
    {"compound": "TGF-β1: negative reference at 20 ng/ml in the pro-MMP1 assay", "values": [
      {"measurement": "pro-MMP1 release in supernatant", "setting": "[2]", "value": "reduced"}
    ]}
  ]
}
